In one data set the target is CYP3A4 (CYP3A) (Homo sapiens, UniProt P08684). Briefly: in vitro. Conditions: microsomes, pH 7.4.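 Also: inhibition of CYP3A-mediated 1-hydroxymidazolam formation after 10 min incubation with NADPH, quantified by HPLC MS relative to metabolite produced without test compound.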
The target in a further data set is CYP2D6 (Homo sapiens, UniProt P10635). Briefly: CYP2D6 inhibition assay (bufuralol, pooled human liver microsomes). For orientation: Microsomes from liver hold many membrane-bound enzymes, among them those of drug oxidation.
Data set [1] deals with Aβ40 in conditioned medium of cells stably expressing Amyloid Precursor Protein (APP). Briefly: In vitro BACE cell-based assay (Aβ40 in conditioned medium, sandwich ELISA).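 Also: compounds added as a dilution series, secreted peptide quantified by europium time-resolved fluorescence readout, potency fitted from percent of control versus compound concentration.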 Conditions: Homo sapiens. (In general: In an ELISA, binding on a coated surface is turned into a signal by an enzyme label.)
Data set [2] in a line: Microsomal stability assay, rat liver microsomes.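 Also: rat liver microsomes (0.25 mg/mL) with about 1 µM compound plus 1 mM NADPH, pH 7.4, 37 °C for 30 min, parent left measured by LC-MS/MS against 0 min.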
Data set [3] has as its target Beta Secretase enzyme (BACE) (Homo sapiens, UniProt P56817). Briefly: In vitro enzymatic BACE FRET (fluorescence resonance energy transfer) assay.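 Also: fluorescence read after 1 h with 50 nM quenched peptide substrate spanning the BACE cleavage site, in pH 4.2 acetate buffer containing 10% DMSO and nonionic detergent.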 The class given is biochemical.
Data set [4] is described as follows: Microsomal stability assay, human liver microsomes.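 Also: pooled human liver microsomes at 0.25 mg/mL with 1 µM compound and NADPH at 37 °C, pH 7.4, for 30 min, unchanged parent quantified by LC-MS/MS against the 0 min sample.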
Where [5] appears, read: 2D6 IC50 (uM), CYP enzyme inhibition.
The mark [6] stands for this setting: HEK293, HEK cell-based assay, IC50's in uM, read-out: HEK cell assay.
Where [7] appears, read: BACE enzyme assay, IC50's in uM, read-out: BACE1 FRET assay.
Setting [8] is: HEK293, HEK cells, read-out: HEK cell assay (IC50).
[9] abbreviates: read-out: BACE1 FRET assay (IC50).
The mark [10] stands for this setting: 2D6 IC50, CYP enzyme inhibition.
Setting [11] is: HEK293, Table 2, HEK cells, read-out: HEK cell assay.
Setting [12] is: Table 2, read-out: BACE1 FRET assay.
Where [13] appears, read: 2D6 IC50 (uM), CYP2D6 inhibition.
Setting [14] is: HEK293, HEK cell-based assay IC50, read-out: HEK cell assay.
[15] abbreviates: BACE enzyme assay IC50, read-out: BACE1 FRET assay.

Like-named read-outs stand apart in the source and are kept apart here. Where only a bound is given, the exact number is not on record here.

Sequence of CYP3A4 (CYP3A) (P08684 2-503): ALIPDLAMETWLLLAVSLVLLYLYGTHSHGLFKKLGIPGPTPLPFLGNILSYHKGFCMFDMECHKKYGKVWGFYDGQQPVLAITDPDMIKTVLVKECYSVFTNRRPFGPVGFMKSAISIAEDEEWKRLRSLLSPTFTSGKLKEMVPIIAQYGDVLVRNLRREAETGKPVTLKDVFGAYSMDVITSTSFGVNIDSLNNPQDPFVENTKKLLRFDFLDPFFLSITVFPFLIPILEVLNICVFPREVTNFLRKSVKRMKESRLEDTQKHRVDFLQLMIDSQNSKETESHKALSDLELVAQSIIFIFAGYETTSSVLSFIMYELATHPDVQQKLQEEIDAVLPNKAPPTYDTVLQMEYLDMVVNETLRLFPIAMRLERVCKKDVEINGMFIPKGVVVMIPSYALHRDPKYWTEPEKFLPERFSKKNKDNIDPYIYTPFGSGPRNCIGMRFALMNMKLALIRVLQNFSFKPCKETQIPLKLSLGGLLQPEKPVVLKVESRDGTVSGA
Sequence of CYP2D6 (P10635 whole entry): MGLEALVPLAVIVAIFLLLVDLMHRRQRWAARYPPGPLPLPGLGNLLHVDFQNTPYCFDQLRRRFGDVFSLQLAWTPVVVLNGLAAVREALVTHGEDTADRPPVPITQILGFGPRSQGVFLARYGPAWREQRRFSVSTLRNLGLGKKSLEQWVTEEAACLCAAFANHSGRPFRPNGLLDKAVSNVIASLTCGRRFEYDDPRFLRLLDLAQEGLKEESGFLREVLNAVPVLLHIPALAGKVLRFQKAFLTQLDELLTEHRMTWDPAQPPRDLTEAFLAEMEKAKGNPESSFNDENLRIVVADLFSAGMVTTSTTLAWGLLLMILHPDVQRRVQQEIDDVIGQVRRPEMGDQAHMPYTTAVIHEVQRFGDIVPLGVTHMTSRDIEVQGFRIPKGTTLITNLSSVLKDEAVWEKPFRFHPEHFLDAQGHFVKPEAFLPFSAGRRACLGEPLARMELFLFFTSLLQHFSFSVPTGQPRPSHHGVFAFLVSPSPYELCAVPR
Sequence of Beta Secretase enzyme (BACE) (P56817 46-501): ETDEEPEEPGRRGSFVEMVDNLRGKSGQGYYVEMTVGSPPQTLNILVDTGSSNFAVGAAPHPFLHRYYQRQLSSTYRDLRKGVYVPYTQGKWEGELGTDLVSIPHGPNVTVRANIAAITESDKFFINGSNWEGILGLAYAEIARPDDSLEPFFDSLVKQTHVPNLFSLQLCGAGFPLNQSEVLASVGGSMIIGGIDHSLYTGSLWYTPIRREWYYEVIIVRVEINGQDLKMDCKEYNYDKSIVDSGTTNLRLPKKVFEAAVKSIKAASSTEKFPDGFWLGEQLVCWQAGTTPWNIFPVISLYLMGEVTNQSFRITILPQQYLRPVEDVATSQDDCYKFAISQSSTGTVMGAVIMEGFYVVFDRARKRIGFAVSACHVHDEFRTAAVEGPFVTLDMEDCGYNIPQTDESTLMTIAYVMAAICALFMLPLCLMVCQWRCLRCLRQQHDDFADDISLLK

Turning to `CO[C@H](C)C(=O)N[C@@H](Cc1cc(F)cc(-c2nccs2)c1)[C@H](O)CNC1CC2(CCC2)Oc2ncc(CC(C)(F)F)cc21` (stereo partly drawn) [compound 765, (2R)-N-((1S,2R)-3-((6′-(2,2-difluoropropyl)-3′,4′-dihydrospiro[cyclobutane-1,2′-pyrano[2,3-b]pyridin]-4′-yl)amino)-1-(3-fluoro-5-(1,3-thiazol-2-yl)benzyl)-2-hydroxypropyl)-2-methoxypropanamide], the IC50 came out at 200 nM on CYP3A4 (CYP3A), 0.7 µM against CYP2D6 (setting [5]), 0.054 µM in data set [1] (setting [6]) and 0.021 µM in data set [3] (setting [7]). Further, the “RLM” value in data set [2] (rat liver microsomal data) came to 39 µL/min/mg. Also, the “HLM” value in data set [4] (human liver microsomal data) is 35 µL/min/mg.

Take `CO[C@H](C)C(=O)N[C@@H](Cc1ccc(O)c(O)c1)[C@H](O)CN[C@H]1CC2(CCC2)Oc2ncc(CC(C)(C)C)cc21` [compound 651]: the IC50 against CYP3A4 (CYP3A) is 1600 nM; at CYP2D6 (2D6 IC50, CYP2D6 inhibition), 10.8 µM; in data set [1] (setting [8]) it was 0.012 µM; in data set [3] (setting [9]), 0.008 µM. Further, in data set [2] (rat liver microsomes), the RLM amounted to 147 µL/min/mg. The compound also displayed an HLM in data set [4] (human liver microsomes) of 171 µL/min/mg.

On to `CC(=O)N[C@@H](Cc1ccc2c(c1)OCO2)[C@H](O)CN[C@H]1CC2(CCC2)Oc2ncc(CC(F)(F)F)cc21` [compound 517], for which the IC50 at CYP3A4 (CYP3A) stood at 500 nM; on CYP2D6 (setting [5]), 7.8 µM; in data set [1] (HEK293, HEK cells, read-out: HEK cell assay), 0.202 µM; in data set [3] (BACE enzyme assay, read-out: BACE1 FRET assay) it was 0.178 µM. Further, in data set [2] (rat liver microsomal data), the “RLM” value was 51 µL/min/mg. For the same compound, in data set [4] (human liver microsomal data), the “HLM” value worked out at 32 µL/min/mg.

Regarding `CC(=O)N[C@@H](Cc1cc(F)cc(F)c1)[C@H](O)CN[C@H]1CC2(CCC2)Oc2c1cc(CC(C)(C)C)nc2-n1ccnc1` [compound 465], the IC50 against CYP3A4 (CYP3A) is 100 nM; on CYP2D6 (setting [10]) it was 1 µM; in data set [1] (setting [11]) it was 0.032 µM; in data set [3] (setting [12]), 0.019 µM. The compound further registered an RLM in data set [2] (rat liver microsomal data) of 51.5 µL/min/mg. The compound also showed an HLM in data set [4] (human liver microsomal data) of 18.5 µL/min/mg.

As for `CO[C@H](C)C(=O)N[C@@H](Cc1ccc(F)cc1)[C@H](O)CN[C@H]1CC2(CCC2)Oc2c1cc(CC(C)C)cc2-n1ccnc1` [compound 482], the IC50 on CYP3A4 (CYP3A) came to 100 nM; on CYP2D6 (setting [10]), 3.6 µM; in data set [1] (setting [11]), 0.422 µM; in data set [3] (setting [12]), 0.15 µM. The compound further displayed an RLM in data set [2] (rat liver microsomal data) of 194 µL/min/mg. In data set [4] (human liver microsomal data), this compound returned an HLM of 27 µL/min/mg.

On to `COCC(=O)N[C@@H](Cc1cc(F)cc(-c2nc(C)cs2)c1)[C@H](O)CN[C@H]1CC2(CCC2)Oc2ncc(CC(C)C)cc21` [compound 733], for which the IC50 on CYP3A4 (CYP3A) is not above 30 nM; against CYP2D6 (setting [13]), 4.5 µM; in data set [1] (setting [14]), 0.021 µM; in data set [3] (setting [15]), 0.008 µM. Moreover, the “RLM” value in data set [2] (rat liver microsomes) came to 399 µL/min/mg. Further, the “HLM” value in data set [4] (human liver microsomes) is 249 µL/min/mg.

For the compound `CC(=O)N[C@@H](Cc1cc(F)cc(F)c1)[C@H](O)CN[C@H]1CC2(CCC2)Oc2c1cc(CC(C)(C)C)nc2-c1cncs1` [compound 481], the IC50 against CYP3A4 (CYP3A) was determined as 200 nM; on CYP2D6 (setting [10]) it was 7.9 µM; in data set [1] (setting [11]), 0.123 µM; in data set [3] (setting [12]) it was 0.004 µM. Also, in data set [2] (rat liver microsomal data), the RLM came to 177 µL/min/mg. This compound registered an HLM in data set [4] (human liver microsomal data) of 155 µL/min/mg.

For the compound `CO[C@H](C)C(=O)N[C@@H](Cc1ccc(-c2nccs2)cc1)[C@H](O)CN[C@H]1CC2(CCC2)Oc2ncc(CC(C)(C)C)cc21` [compound 735], the IC50 at CYP3A4 (CYP3A) was not above 30 nM; on CYP2D6 (setting [13]), 1 µM; in data set [1] (setting [14]), 0.06 µM; in data set [3] (setting [15]), 0.049 µM. The “RLM” value in data set [2] (rat liver microsomes) was 80 µL/min/mg. For the same compound, the “HLM” value in data set [4] (human liver microsomes) was determined as 78 µL/min/mg.

As to `CC(C)(C)Cc1cnc2c(c1)[C@@H](NC[C@@H](O)[C@H](Cc1ccc3c(c1)OCO3)NC(=O)[C@H]1CCC(=O)C1)CC1(CCC1)O2` [compound 450], the IC50 against CYP3A4 (CYP3A) was found to be 400 nM; against CYP2D6 (setting [10]), 8.6 µM; in data set [1] (setting [11]), 0.183 µM; in data set [3] (setting [12]) it was 0.15 µM. The same compound displayed an RLM in data set [2] (rat liver microsomal data) of 170 µL/min/mg. Besides, in data set [4] (human liver microsomal data), the HLM worked out at 76 µL/min/mg.

For `CC(=O)N[C@@H](Cc1cc(F)cc(-c2cccnc2)c1)[C@H](O)CN[C@H]1CC2(CCC2)Oc2ccc(CC(C)(C)C)cc21` [compound 649], the IC50 at CYP3A4 (CYP3A) was 300 nM; against CYP2D6 (2D6 IC50, CYP2D6 inhibition) it was 0.5 µM; in data set [1] (setting [8]), 0.03 µM; in data set [3] (setting [9]), 0.007 µM. Moreover, the RLM in data set [2] (rat liver microsomes) worked out at 482 µL/min/mg. This compound gave an HLM in data set [4] (human liver microsomes) of 706 µL/min/mg.

Consider `COCC(=O)N[C@@H](Cc1cc(F)cc(-c2nccs2)c1)[C@H](O)CN[C@@]1(C)CC2(CCC2)Oc2ncc(CC(C)(C)C)cc21` [compound 866], for which the IC50 at CYP3A4 (CYP3A) worked out at 200 nM; at CYP2D6 (setting [10]), 0.9 µM; in data set [1] (HEK293, cell-based assay, HEK cells, IC50's in uM, read-out: HEK cell assay), 0.88 µM; in data set [3] (setting [7]), 0.177 µM. Also, the RLM in data set [2] (rat liver microsomal data) turned out to be 90 µL/min/mg. In addition, in data set [4] (human liver microsomal data), the HLM was 84 µL/min/mg.

On to `CO[C@H](C)C(=O)N[C@@H](Cc1ccc2c(c1)OCO2)[C@H](O)CN[C@H]1CC2(CCC2)Cc2sc(CC(C)(C)C)cc21` [compound 455], for which the IC50 at CYP3A4 (CYP3A) stood at 2600 nM; at CYP2D6 (setting [10]), 5.5 µM; in data set [1] (setting [11]), 0.231 µM; in data set [3] (setting [12]), 0.049 µM. Further, the RLM in data set [2] (rat liver microsomal data) is 201 µL/min/mg. For the same compound, the HLM in data set [4] (human liver microsomal data) amounted to 211 µL/min/mg.

In the case of `CC#Cc1cnc2c(c1)[C@@H](NC[C@@H](O)[C@H](Cc1cccc(-c3nccs3)c1)NC(=O)COC)CC1(CCC1)O2` [compound 811], the IC50 on CYP3A4 (CYP3A) amounted to 300 nM; on CYP2D6 (setting [5]), 1 µM; in data set [1] (setting [6]), 0.736 µM; in data set [3] (setting [7]), 0.309 µM. The “RLM” value in data set [2] (rat liver microsomal data) is 54 µL/min/mg. Further, in data set [4] (human liver microsomal data), the “HLM” value amounted to 36 µL/min/mg.

As to `COCC(=O)N[C@@H](Cc1cc(F)cc(-c2nccs2)c1)[C@H](O)CN[C@H]1CC2(CCC2)Oc2ncc(CC(C)(C)F)cc21` [Example 724, N-((1S,2R)-3-(((4′S)-6′-(2-fluoro-2-methylpropyl)-3′,4′-dihydrospiro[cyclobutane-1,2′-pyrano[2,3-b]pyridin]-4′-yl)amino)-1-(3-fluoro-5-(1,3-thiazol-2-yl)benzyl)-2-hydroxypropyl)-2-methoxyacetamide], the IC50 on CYP3A4 (CYP3A) was determined as 200 nM; at CYP2D6 (setting [13]), 0.9 µM; in data set [1] (setting [14]), 0.009 µM; in data set [3] (setting [15]), 0.006 µM. In addition, in data set [2] (rat liver microsomes), the “RLM” value came out at 38 µL/min/mg. For the same compound, the “HLM” value in data set [4] (human liver microsomes) came to 45 µL/min/mg.

Turning to `COCC(=O)N[C@@H](Cc1ccc(-c2nccs2)c(F)c1)[C@H](O)CN[C@H]1CC2(CCC2)Oc2ncc(CC(C)C)cc21` [compound 787], the IC50 against CYP3A4 (CYP3A) came out at 200 nM; against CYP2D6 (setting [5]), 0.8 µM; in data set [1] (setting [6]), 0.451 µM; in data set [3] (setting [7]), 0.11 µM. The “RLM” value in data set [2] (rat liver microsomal data) was 79 µL/min/mg. Besides, in data set [4] (human liver microsomal data), the “HLM” value turned out to be 58 µL/min/mg.

Consider `COCC(=O)N[C@@H](Cc1cc(F)cc(-c2nccs2)c1)[C@H](O)CN[C@H]1CC2(CCC2)Oc2ccc(CC(C)C)cc21` [compound 771, N-((1S,2R)-1-(3-fluoro-5-(1,3-thiazol-2-yl)benzyl)-2-hydroxy-3-(((4S)-6-(2-methylpropyl)-3,4-dihydrospiro[chromene-2,1′-cyclobutan]-4-yl)amino)propyl)-2-methoxyacetamide], for which the IC50 against CYP3A4 (CYP3A) turned out to be 700 nM; at CYP2D6 (setting [5]), 0.5 µM; in data set [1] (setting [6]), 0.04 µM; in data set [3] (setting [7]), 0.005 µM. The “RLM” value in data set [2] (rat liver microsomal data) turned out to be 201 µL/min/mg. In addition, in data set [4] (human liver microsomal data), the “HLM” value amounted to 150 µL/min/mg.

(Values after patent publication US8163909B2, “Substituted hydroxyethyl amine compounds as beta-secretase modulators and methods of use” (Amgen Inc., priority 2007, dated 2012).)
